{"source": "patent US20060073529A1", "about": "“Luciferyl peptide substrate” (priority 2004, published 2006)", "key": {"[1]": {"tested_on": "LNCaP, a prostate cancer cell line that produces PSA", "assay": "in vitro model: PSA-specific substrate on PSA secreting cells (FIG. 7)", "assay_type": "cell-based", "details": "serum-free media", "experimental": "The LNCaP cells were incubated for 5 and 19 hours, which represented two time intervals during which the cells were to synthesize PSA, and both cell lines were transfected with SKLQ-aLuc to produce luciferase. […] (“DHT”) was used to investigate its influence on cell growth and PSA production. The cell culture media was serum-free to prevent PSA from forming complexes with various serine-protease inhibitors that are present in the serum."}, "[2]": {"tested_on": "chymotrypsin", "assay": "protease assay of FIG. 3, performed in culture", "assay_type": "cell-based", "excerpt": "The procedure described in FIG. 2 may be used in in vivo protease assays. Naturally occurring proteases can be used to convert luciferylpeptides to aminoluciferin. These naturally occurring proteases may be associated with a physical state of the body, an organ, tissue, or cells, or may be associated with the location of particular conditions. There, the luciferylpeptide, N-Ac-Phe-aminoluciferin, was synthesized from a solution of 6-amino-2-cyanobenzothiazole, pursuant to the procedure set forth in Monsees et al., supra. […] The aminoluciferin was then available for reaction with luciferase, and in the presence of ATP and O2 in the cells, produced visible light and oxyaminoluciferin. The procedure shown in FIG. 3 was initially performed in culture and subsequently in a transgenic mouse model. This procedure can be modified by adding different compounds to the aminoluciferin, and cleaving the conjugate at the appropriate time and place with specific enzymes."}, "[3]": {"tested_on": "chymotrypsin", "assay": "in vivo protease assay: luc mice given substrate plus chymotrypsin injections at selected sites", "parameters": "species or system mouse", "details": "mice expressing luc gene, further injections with chymotrypsin at selected sites", "experimental": "In FIG. 4A, the pictured mouse was injected with luciferin. […] In FIG. 4B, the mice were injected with the modified substrate N-Ac-Phe-aminoluciferin. […] The dramatic reduction in signal intensity (note scales on images) on the second mouse is due to the lack of freely available substrate for the luciferase reaction. The mouse pictured on the right was subjected to further injections with chymotrypsin at selected sites. Chymotrypsin is a proteolytic enzyme that can use N-Ac-Phe-aminoluciferin as a substrate. […] The freely available aminoluciferin was then catalyzed by luciferase to generate the photons seen in the photograph. […] It can thus be observed that the use of aminoluciferin substrates results in increased versatility for in vivo assays such that protease activity can be assessed in live cells in vivo or in a test tube.\nIn a one embodiment of the invention, peptide sequences that are conjugated to aminoluciferin are cleaved by the protease chymotrypsin or by chymotrypsin-like proteases, such as, for example, PSA, a clinical marker for prostate cancer."}, "[4]": {"tested_on": "luciferase", "assay": "imaging of mice expressing the luc gene after substrate injection", "assay_type": "in vivo, mouse", "details": "substrate injected, no protease injected", "protocol": "In these experiments, injection of the mice with luciferin activates the luciferin-luciferase reaction and the subsequent emission of light, i.e., photons, which can be monitored outside the body using low light imaging systems, based on charge coupled device (“CCD”) cameras.\nIn FIG. 4A, the pictured mouse was injected with luciferin. […] In FIG. 4B, the mice were injected with the modified substrate N-Ac-Phe-aminoluciferin. […] The mouse pictured on the right was subjected to further injections with chymotrypsin at selected sites. Chymotrypsin is a proteolytic enzyme that can use N-Ac-Phe-aminoluciferin as a substrate."}, "[5]": {"molecular_target": "luciferase (Photinus pyralis, UniProt P08659)", "sequence (P08659 whole entry)": "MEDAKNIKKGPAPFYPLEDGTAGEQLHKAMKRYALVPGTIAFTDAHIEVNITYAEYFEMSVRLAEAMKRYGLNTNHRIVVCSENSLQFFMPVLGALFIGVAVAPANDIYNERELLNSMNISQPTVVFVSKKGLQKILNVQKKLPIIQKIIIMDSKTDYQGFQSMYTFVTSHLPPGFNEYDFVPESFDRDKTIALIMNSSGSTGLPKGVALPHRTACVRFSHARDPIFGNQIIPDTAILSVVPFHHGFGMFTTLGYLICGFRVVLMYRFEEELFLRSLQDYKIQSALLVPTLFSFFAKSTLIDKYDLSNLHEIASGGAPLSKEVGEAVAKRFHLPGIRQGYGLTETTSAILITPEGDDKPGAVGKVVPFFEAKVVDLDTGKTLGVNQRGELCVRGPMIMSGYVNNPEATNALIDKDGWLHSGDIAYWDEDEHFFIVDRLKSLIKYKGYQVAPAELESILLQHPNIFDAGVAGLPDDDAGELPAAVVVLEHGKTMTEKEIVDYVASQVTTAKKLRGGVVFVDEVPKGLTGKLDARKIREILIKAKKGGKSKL", "details": "in the presence of ATP, Mg2+/O2 and luciferase; cited from earlier work"}, "[6]": {"tested_on": "LNCaP tumor (PSA)", "assay": "in vivo model: SCID mice bearing subcutaneous LNCaP tumor (FIG. 8)", "parameters": "species or system mouse", "details": "FIG. 8B", "experimental": "The peptides were then tested in severe compromised immune deficiency (SCID) mice that bore an LNCaP tumor implanted at a subcutaneous site. […] The mice were injected with luciferin to localize the tumors and confirm their presence. […] The aminoluciferin released from the cleavage of the peptide by PSA is transported across the LNCaP cell membrane and reacts with luciferase to emit light. Thus, the aminoluciferyl peptide is activated by PSA and consequently can be used to target PSA producing cells in animal models."}}, "note": "The star is where a group is joined. aminoluciferin = O=C(O)[C@H]1CSC(c2nc3ccc(N*)cc3s2)=N1", "data": [{"compound": "C[C@]12CCC(=O)C[C@@H]1CC[C@@H]1[C@@H]2CC[C@]2(C)[C@@H](O)CC[C@@H]12", "note": "[DHT, Dihydroxytestosterone]", "values": [{"measurement": "influence on PSA levels", "setting": "[1]; LNCaP/PC3M", "value": "does not appear to influence"}, {"measurement": "influence on cell growth", "setting": "[1]; LNCaP/PC3M", "value": "does not appear to influence"}]}, {"compound": "CC(=O)N[C@@H](Cc1ccccc1)C(=O)Nc1ccc2nc(C3=N[C@@H](C(=O)O)CS3)sc2c1", "note": "[N-Ac-Phe-aminoluciferin]", "values": [{"measurement": "luminescence of the intact luciferylpeptide", "setting": "[2]; before addition of chymotrypsin", "value": "prevented from luminescing"}, {"measurement": "cleavage of the luciferylpeptide by the protease", "setting": "[2]; upon addition of chymotrypsin", "value": "aminoluciferin was cleaved from the luciferylpeptide"}, {"measurement": "photon emission from the mouse after protease injection", "setting": "[3]", "value": "only the sites where the protease enzyme was injected produced detectable signals"}, {"measurement": "photon emission from the mouse", "setting": "[4]", "value": "only isolated regions of the mouse produced low level photon emission"}]}, {"compound": "Nc1ccc2nc(C3=N[C@@H](C(=O)O)CS3)sc2c1", "note": "[aminoluciferin, D-(−)-2-(6′-amino-2′-benzothiazolyl)-Δ^2-thiazoline-4-carboxylic Acid]", "values": [{"measurement": "light generation compared with luciferin", "setting": "[5]", "value": "generates light to the same extent as does luciferin"}]}, {"compound": "O=C(O)[C@H]1CSC(c2nc3ccc(O)cc3s2)=N1", "note": "[luciferin, (D)-(−)-2-(6′-Hydroxy-2′-benzothiazolyl)-2-thiazoline-4-carboxylic acid]", "values": [{"measurement": "photon emission from the mouse", "setting": "[4]", "value": "most of the tissues of this mouse emitted visible light"}]}, {"compound": "Ac-Ser-Lys-Leu-Gln-aLuc (Ac-SKLQ-aminoluciferin; SMILES CC(=O)N[C@@H](CO)C(=O)N[C@@H](CCCCN)C(=O)N[C@@H](CC(C)C)C(=O)N[C@@H](CCC(N)=O)C(=O)Nc1ccc2nc(C3=N[C@@H](C(=O)O)CS3)sc2c1) [SKLQ-aLuc]", "values": [{"measurement": "light emission from LNCaP tumors", "setting": "[6]", "value": "light emission from these tumors"}, {"measurement": "amount of aminoluciferyl peptide detected in the cells versus PSA secreted", "setting": "[1]; LNCaP incubated 5 and 19 hours, PC3M as non-PSA line", "value": "directly proportional to the amount of PSA secreted into the media by the LNCaP cells"}]}]}
